# Experimental data from USRE47193E1, “Selectively substituted quinoline compounds” (EISAI R&D MANAGEMENT CO., LTD., priority 2013, dated 2019).
# Columns and labels:
# Human TLR7/8 = assay: Human PBMC cell-based assay, TLR7/8 stimulus (RNA-Ig), cytokine ELISA; settings: primary human PBMC assay, TLR7/8 potency; ligand not given; read-out: Human PBMCs IC50
# Summary of the method: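 The agonist was RNA-Ig, a U1 snRNA-derived 26-mer RNA (2.5 μM) complexed with RNA-cross-reacting anti-ssDNA mAb (1:25 or 1 ug/ml), added after 30 min compound pre-incubation (0.1% DMSO). Density-gradient PBMC from healthy donors, 2×10^5/well, were stimulated 20 h at 37 °C; cytokines quantified by ELISA.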
# human TLR8 = biological target: T1, human TLR8 (Homo sapiens, UniProt Q9NR97); assay: HEK-293 human TLR8 NF-kappaB luciferase reporter assay (CL097); format: cell-based; settings: HEK-293 assay format; read-out: HEK/hTLR8 IC50
# T1 construct: host or cells: HEK-293, then stably transfected with pNiFty2(NF-kappaB)-luciferase reporter
# T1 sequence (Q9NR97 27-1041): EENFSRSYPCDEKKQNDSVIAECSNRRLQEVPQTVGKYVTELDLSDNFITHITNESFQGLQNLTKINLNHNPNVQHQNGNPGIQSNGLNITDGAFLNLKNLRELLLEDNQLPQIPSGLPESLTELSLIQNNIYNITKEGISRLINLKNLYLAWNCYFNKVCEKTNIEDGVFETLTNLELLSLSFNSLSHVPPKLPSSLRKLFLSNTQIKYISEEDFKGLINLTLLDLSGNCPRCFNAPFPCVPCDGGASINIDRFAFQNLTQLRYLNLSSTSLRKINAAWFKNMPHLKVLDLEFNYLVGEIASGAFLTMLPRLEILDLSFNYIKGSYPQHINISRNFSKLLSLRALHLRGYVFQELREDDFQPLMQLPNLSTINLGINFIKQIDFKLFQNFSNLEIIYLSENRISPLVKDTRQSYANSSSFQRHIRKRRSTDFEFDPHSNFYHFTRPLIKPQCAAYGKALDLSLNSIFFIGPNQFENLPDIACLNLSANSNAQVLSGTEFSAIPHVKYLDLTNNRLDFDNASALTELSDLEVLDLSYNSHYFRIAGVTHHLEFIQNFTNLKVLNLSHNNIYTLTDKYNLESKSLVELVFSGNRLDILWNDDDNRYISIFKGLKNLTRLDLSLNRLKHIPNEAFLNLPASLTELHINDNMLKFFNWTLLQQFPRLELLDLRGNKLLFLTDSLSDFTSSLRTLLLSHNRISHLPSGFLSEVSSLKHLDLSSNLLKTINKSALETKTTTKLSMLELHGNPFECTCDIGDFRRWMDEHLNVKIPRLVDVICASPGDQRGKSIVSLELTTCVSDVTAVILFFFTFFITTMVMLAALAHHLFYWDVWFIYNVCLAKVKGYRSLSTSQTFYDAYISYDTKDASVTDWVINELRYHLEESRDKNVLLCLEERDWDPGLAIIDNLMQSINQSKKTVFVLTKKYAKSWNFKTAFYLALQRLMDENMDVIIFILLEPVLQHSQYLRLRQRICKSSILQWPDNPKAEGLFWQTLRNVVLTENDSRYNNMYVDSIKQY
# Method: Effects on mouse TLR7 were also compared. Cells were stimulated overnight with TLR7/8 agonist CL097 at pre-determined ED70-80: 3 ug/ml for HEK-hTLR7, 1.5 ug/ml for HEK-mTLR7 and 12 ug/ml for HEK-hTLR8, before reading luminescence intensity. Three tests were performed and IC50 value was determined using Graphpad Prism 6 nonlinear regression curve fit.
# HEK-293 cells (ATCC) were engineered to stably express a NF-kappaB transcription factor inducible E-selectin (ELAM-1) luciferase reporter derived from the plasmid pGL3 (Promega) containing base pairs −2241 bp to −254 bp from the promoter of the human E-selectin gene (Accession No. NM_000450). These cells were then subsequently engineered to stably and individually express human TLR4, TLR7 or TLR9 full-length ORF cDNAs. Human TLR4 cDNA (Accession No. NM_138554) was cloned into pcDNA 3.0 expression vector (Invitrogen). TLR4 transfected cells were also engineered to express human MD-2 co-receptor [MD-2 cDNA (Accession No. NM_015364) was cloned into the pEF-BOS vector] and were supplemented with 10 nM soluble CD14 (R&D Systems) in the media to optimize LPS responsiveness. Human TLR9 cDNA (Accession No. NM_017442) was cloned into the pBluescript II KS vector (Agilent). Human TLR7 cDNA (Accession No. NM_016562) was obtained from OriGene. HEK-293 cells stably expressing human TLR8 (Accession No. NM_138636) or mouse TLR7 (Accession No. NM_133211) were purchased from InvivoGen and were then stably transfected with pNiFty2(NF-kappaB)-luciferase reporter plasmid (InvivoGen). Each cell type was plated in Dulbecco's modified Eagle's medium (DMEM) containing 10% fetal bovine serum (FBS) at a density of 2.22×10^5 cells/ml into a 384-well plate and incubated for 2 days at 37° C., 5% CO2. Varying concentrations of antagonist compounds were then added. Cells were then incubated for another 30 minutes before adding the appropriate TLR agonist as follows (final concentrations indicated): lipopolysaccharide (LPS; Sigma) at 10 ng/ml for TLR4, CL097 (InvivoGen) at 3 ug/ml for human TLR7 and TLR8 and mouse TLR7, and CvG-2006-2A [sequence: […] (SEQ ID NO: 1) with phosphorothioate backbone, synthesized by Sigma-Aldrich] at 0.6 uM for TLR9.
Compound,IC50 (Human TLR7/8) [nM],IC50 (human TLR8) [nM]
C[C@@H]1CN(c2ccc(C#N)c3ncccc23)C[C@H](CCl)O1 [ER-885906],33,20
CC[C@@H]1CN(c2ccc(C#N)c3ncccc23)C[C@H](COCc2ccccc2)O1 [ER-886355],177,66
C[C@@H]1CN(c2ccc(C#N)c3ncccc23)C[C@H](COc2ccccc2F)O1 [ER-886624],23,86
CCC(=O)[C@H]1CN(c2ccc(C#N)c3ncccc23)C[C@@H](C)O1 [ER-886625],91,10
C[C@@H]1CN(c2ccc(C#N)c3ncccc23)C[C@H](C(=O)C2CCCCC2)O1 [ER-886626],80,5
C[C@@H]1CN(c2ccc(C#N)c3ncccc23)C[C@H](CN2CCC(c3ccccc3)C2)O1 (stereo partly drawn) [ER-886854],20,46
CC1CCC(C)N1C[C@H]1CN(c2ccc(C#N)c3ncccc23)C[C@@H](C)O1 (stereo partly drawn) [ER-886857],98,72
COc1ccnc(NC[C@H]2CN(c3ccc(C#N)c4ncccc34)C[C@@H](C)O2)c1 [ER-886858],15,2
C[C@@H]1CN(c2ccc(C#N)c3ncccc23)C[C@H](CN2CCC(C)(C)C2)O1 [ER-886869],112,161
C[C@@H]1CN(c2ccc(C#N)c3ncccc23)C[C@H](CN2CCC[C@@H](O)C2)O1 [ER-886949],32,78
C[C@@H]1CN(c2ccc(C#N)c3ncccc23)C[C@H](CN2CCCCC2CO)O1 (stereo partly drawn) [ER-886955],129,83
C[C@@H]1CN(c2ccc(C#N)c3ncccc23)C[C@H](CNc2cccnc2)O1 [ER-887138],4,13
C[C@@H]1CN(c2ccc(C#N)c3ncccc23)C[C@H](CN2CCC(F)(F)CC2)O1 [ER-887142],147,115
C[C@@H]1CN(c2ccc(C#N)c3ncccc23)C[C@H](CN2CCC(c3ccccc3)CC2)O1 [ER-887143],13,148
CC1CN(c2ccc(C#N)c3ncccc23)CC(CN2CCC(F)CC2)O1 (stereo not drawn) [ER-887144],63,48
CC[C@@H]1CN(c2ccc(C#N)c3ncccc23)C[C@H](CO)O1 [ER-887199],117,77
C[C@@H]1CN(c2ccc(C#N)c3ncccc23)C[C@H](CN2CCN(c3ccccc3)CC2)O1 [ER-887258],55,175
CC(=O)N1CCN(C[C@H]2CN(c3ccc(C#N)c4ncccc34)C[C@@H](C)O2)CC1 [ER-887261],120,77
C[C@@H]1CN(C[C@H]2CN(c3ccc(C#N)c4ncccc34)C[C@@H](C)O2)[C@H](C)CN1 [ER-887271],2,1.6
C[C@@H]1CN(c2ccc(C#N)c3ncccc23)C[C@H](CN2C[C@H](C)NC[C@H]2C)O1 [ER-887272],2,2.9
C[C@@H]1CN(c2ccc(C#N)c3ncccc23)C[C@H](CNC2CCC2)O1 [ER-887443],32,138
C[C@@H]1CN(c2ccc(C#N)c3ncccc23)C[C@H](CNC2CCC(O)CC2)O1 (stereo partly drawn) [ER-887526],50,122
C[C@@H]1CN(c2ccc(C#N)c3ncccc23)C[C@H](CNc2ccc(-c3ccccc3)cn2)O1 [ER-887538],48,85
C[C@@H]1CN(c2ccc(C#N)c3ncccc23)C[C@H](CNc2ncccc2-c2ccccc2)O1 [ER-887540],1,3
CCOc1cccnc1NC[C@H]1CN(c2ccc(C#N)c3ncccc23)C[C@@H](C)O1 [ER-887587],1,1.8
C[C@@H]1CN(c2ccc(C#N)c3ncccc23)C[C@H](CNc2ccnc(-c3ccccc3)c2)O1 [ER-887588],1,0.5
C[C@@H]1CN(c2ccc(C#N)c3ncccc23)C[C@H](CN2CC(NC(=O)c3ccccc3)C2)O1 [ER-894594],87,116
